From US7915009B2, “Activation and inhibition of the immune system” (The Mathilda and Terence Kennedy Institute of Rheumatology …, priority 1999, dated 2011)
Entries after “also recorded” stand apart in the source; their conditions may differ. Where a SMILES comes first, the peptide text is derived from it. The star is where a group is joined. Cbz = O=C(OCc1ccccc1)*; OtBu = CC(C)(C)O*

Legend:
[1] = tested on: mature DC; test: Cell viability of DC treated with PSI, propidium iodide staining (FACS); type: cell-based, human; conditions: PSI for 4 h, analysed 6 days after treatment
Method: FIG. 1. Cell viability of DC treated with PSI. Mature DC was either left untreated, or treated with various doses of PSI for 4 h. After wash, cells were cultured in RPMI 1640 supplemented as described without monocyte condition medium. 6 days after treatment, cells were resuspended in PBS containing 10 μg/ml. Of propidium iodide PI and analysed on FACS scan.
(§1) PSI is an inhibitor of proteosome activity and as such is capable of inhibiting induced IκB degradation and subsequent NF-κB activation. We used PSI to examine the function of NFκB in dendritic cell (DC) activity particularly in relation to antigen presentation and activation of T cells. We have previously shown that PSI is capable of inhibiting NFκB activation at concentrations up to 1 μM. To test the effect of PSI on DC viability mature DC were incubated with concentrations of PSI, ranging from 0.1 μM to 5 μM. […] To assess the role of NFκB in DC function, mature DC were incubated with 0.3 μM, 0.5 μM or 1 μM PSI for […] and the cells washed. As PSI is an activated peptide that binds irreversibly to the proteosomes, the function of the DC can be assessed over the 6 day period of the MLR despite the short period of drug exposure.

[2] = tested on: mature DC; test: Cytokine production of DC treated with PSI (ELISA); type: cell-based, human; conditions: PSI 1 μM
Method: FIG. 9. Cytokine productions of DC treated with vehicle or PSI. Mature DC was treated with vehicle or PSI (1 μM) as described above. Each DC and allo-lymphocytes were plated at 2×10^5 cells per well on a 96 well plate and stimulated with PMA (10 nM) or left unstimulated for 48 hr. Supernatants were analysed for IL-6, IL-8, IL-12 and TNFα by ELISA.
(§2) Cells were pre-treated with vehicle or 1 μM of PSI for 4 h, or infected with adenoviral vectors for 2 h. PSI-treated DC were then directly used in experiments whereas infected cells were further cultured for 2 days to allow overexpression of the relevant protein to occur. 24 h after stimulation of the cells, culture supernatants were collected and kept frozen. Cytokine levels in cell culture supernatants were measured by standard 2 or 3 layer sandwich ELISA techniques using specific monoclonal and polyclonal antibodies for TNFα, IL-4, IL-6, IL-8, IL-12 and IFNγ. Antibody pairs and standards for these assays have been purchased from Pharmingen, with the exception of IL-12 reagents that were gifted from the Genetics Institute (Boston, USA).

[3] = tested on: allo-lymphocytes; test: Surface antigens on allo-lymphocytes cultured with PSI-treated DC (FACScan); type: cell-based, human
Method: FIG. 7. […] Lymphocytes were cultured for 6 days as the same conditions with allo-MLR experiment using vehicle treated DC (green line), or PSI (1 μM) treated DC (red line). Each lymphocytes were phenotyped with MoAbs, CD3, CD25 (PE conjugated; Pharmingen), (CD54) (PE conjugated; Serotec), CD50 (FITC conjugated; Serotec) and analysed by FACScan.
(§3) For FACS staining, cells were first harvested. For adherent cells where surface receptors need to be intact, a warm 2% EDTA in PBS solution was used for 20 min at 37° C. After cells were in solution, they were washed once and then resuspended in ice-cold FACS washing buffer. All subsequent incubations were performed at 4° C. For each analysis, 5×10^5 cells were incubated with the relevant antigen-specific antibody or isotype control for 30 min and then washed twice with FACS washing buffer. Cells were then examined by flow cytometry. cells were ready for analysis on a FACScan flow cytometer (Becton and Dickinson) by using the CellQuest (Becton Dickinson). Directly conjugated monoclonal antibodies to HLA-DR, HLA-A,B,C, CD80, CD86, CD3, CD14 and CD25 were purchased by Pharmingen, San Diego, USA).

[4] = tested on: allo-lymphocytes; test: Allo-MLR with mixtures of PSI-treated and vehicle-treated DC; type: cell-based, human; conditions: judged from slope of proliferative response curves, PSI 1 μM
Method: FIG. 5. PSI pre-treated DC inhibit the growing ability of lymphocytes in allo-MLR. Mature DC was treated with PSI as described above. After washing, each DC was mixed to make different compositions: vehicle treated DC only (∘), ¼ number of PSI treated DC mixed with ¾ vehicle treated DC (●), ⅛ number of PSI treated DC mixed with […] vehicle treated DC (▪), or PSI treated DC only (▴). Graded number of each mixture and 10^5 cells of allo-lymphocytes were plated on a 96 well plate. Proliferation was determined at day 6 by ^3H-TdR uptake assay.
(§4) A means of detecting whether PSI-DC were generating inhibitory effects is to culture T cells with a mixture of PSI treated and untreated DC. […] Next we investigated whether exposure to PSI-DC would induce long term unresponsiveness in the T cells. T cells were exposed to normal or PSI-DC as previously described after which the T cells were collected and were treated with a DC for a second time and the proliferative response measured (FIG. 6). […] This would indicate that the effects of exposure to PSI-DC are prolonged and the T cells acquire a non-responsive or anergic state.

[5] = tested on: mature DC; test: Surface antigen expression on PSI-treated DC (FACScan); type: cell-based, human
Method: FIG. 3. Effect of PSI on the expression of surface antigens was studied using monoclonal antibodies, HLA-DR, CD86 (PE conjugated); Pharmingen, San Diego, Calif.). on day 6 after PSI treatment, populations of untreated (green line), PSI (0.1 μM) treated (blue dotted line), PSI (1 μM) treated (red dotted line) were phenotyped with the MoAbs listed above and analysed on FACScan (Becton Dickinson).
as §3

[6] = tested on: allo-lymphocytes; test: Cytokine production of allo-lymphocytes co-cultured with PSI-treated DC (ELISA); type: cell-based, human
Method: FIG. 8. Cytokine production of allo-lymphocytes co-cultured with vehicle treated or PSI treated DC. Mature DC was treated with vehicle or PSI (1 μM) as described above. Allo-lymphocytes and each DC were plated at 2×10^5 cells per well on a 96 well plate and stimulated with PMA (10 nM) or left unstimulated for […].
as §2

[7] = tested on: mature DC; test: Allogeneic MLR with PSI-treated DC, 3H-TdR uptake; type: cell-based, human; conditions: day 6
Method: FIG. 2. Immunostimulatory capacity of DC treated with the proteosome inhibitor Cbz-Ile-Glu(O-tert-bytyl)-Ala-leucinal (PSI). Mature DC was treated with PSI (0.1 μM: ▴), (0.5 μM: ▪), (1, μM: ●) or without PSI (∘) for 4 h. After wash, different numbers of each category of DC and […] of allo-lymphocytes were plated on a 96 well plate. Proliferation was determined at day 6 using ^3H-TdR uptake assay. (Each point represents mean+/−SEM from five separate experiments).
To assay the immunostimulatory capacity of non-irradiated or irradiated (3000 rad from a ^137Cs source) DC, uninfected, adenovirus-infected, LPS-treated or monocyte-conditioned medium-treated DC were cultured in graded doses with 1×10^5 of allogeneic elutriated T cells in quadruplicate in a 96-well flat-bottom microtiter plate (Falcon). Proliferation was measured on day 5 by thymidine incorporation after a 16 h pulse with [^3H] thymidine (0.5 μCi/well; Amersham Life Science, UK).
as §1

[8] = tested on: NFκB; conditions: previously shown by the inventors; cited from earlier work
[9] = tested on: allo-lymphocytes; test: Re-stimulation of allo-lymphocytes pre-cultured with PSI-treated DC; type: cell-based, human
Method: FIG. 6. Impaired response of allo-lymphocytes pre-cultured with PSI treated or non-treated DC. Lymphocytes were co-cultured with 1/10 number of PSI treated (●, ▴) or non-treated DC (∘,Δ). After 2 days, each DC were removed by CD83, CD86 coated plate. Lymphocytes were cultured for another 4 days using vehicle treated DC (∘,●), or PSI (1 μM) treated DC (Δ,▴). Proliferation was determined by ^3H-TdR uptake assay. (Each point represents mean+/−SEM from three separate experiments).
as §4
Further questions as to the mechanism of the lack of the T cell proliferative response were addressed. It could simply be due to lack of immunogenicity of the DC, or alternatively it could be due to the induction of a form of immunological tolerance or of immune regulation. The mechanism was analysed further by coculture experiments, adding PSI treated DC to untreated DC, and analysing the effect of the mixture on unprimed T cells in the MLR. […] Similar effects have been reported in a variety of tolerance models Zanders et al (1983) Nature 303, 625-627; Zanders et al (1985) J. Immunol. 15, 302-305; Park et al (1997) Eur. J. Immunol. 15, 302-305; and Waldmann & Cubbold (1998) Ann. Rev. Immunol. 16, 619-644 and so we asked whether PSI treated DC induced immunological tolerance. This was assessed by first exposing allogeneic T cells to PSI treated DC for 2 days, and then removing them, by panning with anti CD83 and anti CD86. […]

[10] = 6 days with PSI (1 μM) treated DC
[11] = 1 μM PSI, 6 days after treatment

CC[C@H](C)[C@H](NC(=O)OCc1ccccc1)C(=O)N[C@@H](CCC(=O)OC(C)(C)C)C(=O)N[C@@H](C)C(=O)N[C@H](C=O)CC(C)C [PSI, Cbz-Ile-Glu(O-tert-bytyl)-Ala-leucinal] (Cbz-IE(OtBu)AL-aldehyde)
PSI concentrations showing some toxicity (propidium iodide staining) [1]: > 5 µM
IL-6 expression from PSI-DC during the MLR [2]: to a lesser extent, IL-6 expression was inhibited; also recorded: not changed
IL-8 production from PSI-DC during the MLR [2]: unaffected; also recorded: not changed
IL-12 production by PSI treated DC [2]: Reductions
TNF expression from PSI-DC during the MLR [2]: inhibited; also recorded: Reductions
yields of T cells after culture with PSI treated DC ([3]; 6 days culture): lower
CD3 expression on T lymphocytes [3, 10]: reduced expression
CD11a (LFA-1) expression on T lymphocytes [3, 10]: only marginally reduced; also recorded: some reduction
CD25 expression on T lymphocytes [3, 10]: virtually abolished
CD54 (ICAM-1) expression on T lymphocytes [3, 10]: reduced to a degree similar to CD3; also recorded: some reduction
reduction of proliferative response by ⅛ or ¼ PSI-DC mixed with untreated DC [4]: 3-5 fold
CD86 expression on DC [5, 11]: reduced, to virtually background levels; also recorded: marked reduction
HLA-DR expression on DC [5, 11]: major reduction; also recorded: marked reduction
HLA-DR expression on DC ([5]; 0.1μ PSI, 6 days after treatment): minimal effect
CD80 expression on DC ([5]; PSI-treated DC): downregulation
IFNγ production by T cells in response to PSI-DC ([6]; PSI 1 μM): not produced
IL-2 production by T cells in response to PSI-DC ([6]; PSI 1 μM): not produced
IL-4 production by T cells in response to PSI-DC ([6]; PSI 1 μM): unaffected; also recorded: not changed
inhibition of IFNγ production of T cells exposed to PSI treated DC ([6]; PSI treated DC): more than 90%
inhibition of IL-2 production of T cells exposed to PSI treated DC ([6]; PSI treated DC): more than 90%
T cell proliferation in allogeneic MLR ([7]; DC pretreated with PSI 0.1 μM): no detectable effect
T cell proliferation in allogeneic MLR ([7]; DC pretreated with PSI 0.5 μM): failure of the T cells to proliferate
T cell proliferation in allogeneic MLR ([7]; DC pretreated with PSI 1 μM): failure of the T cells to proliferate
concentrations at which PSI inhibits NFκB activation [8]: up to 1 μM
response of T cells stimulated with PSI-DC prior to normal DC ([9]; 2 days PSI-DC, then 4 days normal DC): unable to respond; also recorded: lack of response
response of T cells exposed to PSI-DC on the second round after normal DC ([9]; PSI 1 μM): failed to proliferate
response of T cells to two rounds of PSI-DC ([9]; PSI 1 μM): did not respond
